Measurements: article PMC12518639, “Apomorphine is a novel necroptosis inhibitor targeting mixed lineage kinase domain-like protein oligomerization” (Cell Death Discovery, 2025)
Structures can show the parent of a compound that is named as a salt. Where two headings read alike, the source gives them in different places.

How the values were obtained:
THP-1-HMGB1-Lucia cells = assay: TBZ-induced necroptosis screening by HMGB1-luciferase release; type: cell-based, human; conditions: 8 h, read-out: % Inhibition (luciferase activity relative to TBZ-treated supernatant); for activity at 20 µM: Homo sapiens
Method: (§1) To identify potential inhibitors of the necroptosis pathway targeting MLKL or the process of p-MLKL pore formation on the membrane, we screened a library of 2150 compounds, including FDA-approved drugs and those in phase 1–3 clinical trials, using THP-1-HMGB1-Lucia™ cells expressing the HMGB1-luciferase fusion protein. The cells were treated with a necroptosis-inducing mixture containing TNF-α, BV6, and Z-VAD-FMK (TBZ) in addition to the compound library (Fig. 1A). The supernatants were harvested to measure luciferase activities for necroptosis. The luciferase activities of cell supernatants treated with TBZ alone were considered as the maximum release (100%) of HMGB1-luciferase. NEC-1, a known RIP1 inhibitor used in both humans and mice, was used as a positive control. […] Next, we performed a propidium iodide (PI) uptake assay to exclude cytotoxic compounds using THP-1 cells. Then, we selected candidate molecules that were arbitrarily less than 30% of those treated with TBZ. […] Next, the inhibition levels of p-MLKL were tested to select MLKL-targeting molecules (Figs. 1C and S1A). Compounds that reduced p-MLKL levels to less than 30% of TBZ-treated controls were considered as potential inhibitors of MLKL phosphorylation. Conversely, compounds that maintained p-MLKL levels above 70% were selected because they are presumed to prevent the formation of pores in the plasma membrane by interfering with oligomerization.
A clinical chemical library containing 2150 items (Korea Chemical Bank, South Korea), under phase 1–3 clinical trials, including FDA-approved drugs, was used to screen for necroptosis inhibitors. Each chemical was dissolved in DMSO and diluted to 20 μM in DPBS for treatment.
THP-1-HMGB1-Lucia^TM cells were pretreated with the pan-caspase inhibitor Z-VAD-FMK (50 μM, tlrl-vad, InvivoGen) and each chemical for 1 h, and followed by TNF-α (100 ng/mL, TNF0501, NKMAXBio, Seongnam, S. Korea) and Smac mimetic BV6 (10 μM, B1332-5, Biovision, Santa Clara, CA, USA), termed TBZ mixture, were added for necroptosis screening. The RIP1 inhibitor, NEC-1 (1846, Biovision), and MLKL inhibitor, NSA (432531-71-0, Sigma-Aldrich, St. Louis, MO, USA), were used as controls. The cell supernatant was harvested to measure HMGB1 levels using a luciferase assay kit (E1500, Promega, Madison, WI, USA) by a luminometer (Centro XS3 LB 960, Berthold Technologies, Bad Wildbad, Germany). The inhibition of necroptosis (%) was calculated as: (sample-treated data – medium-only data) × 100/(TBZ-treated data – medium-only data). APO [STK088477, (6aS)-6-methyl-5,6,6a,7-tetrahydro-4H-dibenzo[de,g]quinoline-10,11-diol, Vitas-M Laboratory, Hong Kong] was stored at −70 °C after aliquoting with DMSO. APO was used after dilution in DPBS. APO is susceptible to auto-oxidation in solution in the presence of light and air. DPBS containing 5 mM DTT was used for Re-APO. Ox-APO was prepared by incubating APO in DPBS at 25 °C for 24 h in the presence of light and air, followed by removal of any precipitate by filtration through 0.2 μm.

p-MLKL = assay: Western blot of phosphorylated MLKL in whole cell lysates; type: cell-based, human; conditions: Homo sapiens, read-out: p-MLKL/MLKL ratio relative to TBZ-treated cells (% Value)
Method: as §1
(§2) The cells were harvested and lysed in 1× RIPA buffer (R4100-010, GenDEPOT, Katy, TX, USA) containing protease (P3100-001, GenDEPOT) and phosphatase (1862495, Thermo Fisher Scientific) inhibitors. WCLs were then centrifuged at 20,000×g for 30 min at 4 °C and subjected to non-reducing or reducing 8–12% SDS-PAGE gel electrophoresis. The membrane was blocked with 5% non-fat milk in TBS and probed with antibodies. Antibodies to hMLKL (14993S), mMLKL (97705S), phospho-hMLKL (Ser358) (91689S), phospho-mMLKL (Ser345) (37333S), phospho-hRIP1 (Ser166) (65746S), mRIP1 (3493S), phospho-mRIP1 (Ser321) (38662S), phospho-hRIP3 (Ser227) (93654), mRIP3 (95702S), p-mRIP3 (Thr231/Ser232) (91702S), and LDH (2012S) (Cell Signaling Technology, Danvers, MA, USA), and GAPDH (LF-PA0018, Abfrontier, S. Korea), hRIP1 (ab72139, Abcam, Cambridge, UK), hRIP3 (sc-135170, Santa Cruz Biotechnology, Dallas, TX, USA), HMGB1 (ab78923, Abcam), and LAMP1 (ab24170, Abcam) antibodies were used.
Fig. S1 Assessment of p-MLKL inhibition to identify MLKL-targeting molecules. (A) Quantification graph corresponding to Fig. 1C. […] Whole-cell lysates (WCLs) were collected and subjected to Western blot analysis under reducing conditions using antibodies against p-MLKL, MLKL, and GAPDH. The p-MLKL/MLKL ratio was quantified and compared to that of TBZ-treated cells. Data represent the mean of three independent experiments. (B) Quantification graph corresponding to Fig. 1D. […] Cytosolic and membrane fractions were collected and analyzed by Western blot under reducing conditions. The levels of p-MLKL and p-RIP1 were normalized to LDH (cytosolic marker) and LAMP1 (membrane marker), respectively. Quantified ratios were compared to those of TBZ-treated cells (n = 3 independent experiments).

p-MLKL and p-RIP1 = assay: Western blot of cytosol and membrane fractions; type: cell-based, human; conditions: THP-1, TBZ, 20 μM
Method: as §2
Cell membrane fractionation was performed to determine whether MLKL oligomers were retained in the cell membrane fraction. Briefly, THP-1 cells were harvested and resuspended in 20 mM TBS (pH 7.4) containing 10 mM KCl, 1 mM MgCl2, protease inhibitor (P3100-001, GenDEPOT), and phosphatase inhibitor (1862495, Thermo Fisher Scientific). The cell suspension was passed through a 22-gauge needle and centrifuged at 20,000×g for 15 min and stored as the cytoplasmic fraction. The pellet was resuspended in lysis buffer and stored as the crude membrane fraction.
Fig. S1 Assessment of p-MLKL inhibition to identify MLKL-targeting molecules. (A) Quantification graph corresponding to Fig. 1C. THP-1 cells were treated with TBZ in the presence of secondarily selected compounds (S1–S72, 20 μM). Whole-cell lysates (WCLs) were collected and subjected to Western blot analysis under reducing conditions using antibodies against p-MLKL, MLKL, and GAPDH. The p-MLKL/MLKL ratio was quantified and compared to that of TBZ-treated cells. Data represent the mean of three independent experiments. (B) Quantification graph corresponding to Fig. 1D. THP-1 cells were treated with TBZ in the presence of third-round selected compounds (S1–S62, 20 μM). Cytosolic and membrane fractions were collected and analyzed by Western blot under reducing conditions. The levels of p-MLKL and p-RIP1 were normalized to LDH (cytosolic marker) and LAMP1 (membrane marker), respectively. Quantified ratios were compared to those of TBZ-treated cells (n = 3 independent experiments).

ulcerative colitis = tested on: ulcerative colitis; design: method as in PMID 34389633; conditions: phase II trial; cited from earlier work
Wt-hMLKL = molecular target: T1, Wt-hMLKL (Homo sapiens, UniProt Q8NB16); assay: SPR competition assay of NSA with Ox-APO; type: binding; conditions: 200 μM NSA, 750 μM Ox-APO
T1 construct: purchased Abcam ab241453
T1 sequence (Q8NB16 1-471): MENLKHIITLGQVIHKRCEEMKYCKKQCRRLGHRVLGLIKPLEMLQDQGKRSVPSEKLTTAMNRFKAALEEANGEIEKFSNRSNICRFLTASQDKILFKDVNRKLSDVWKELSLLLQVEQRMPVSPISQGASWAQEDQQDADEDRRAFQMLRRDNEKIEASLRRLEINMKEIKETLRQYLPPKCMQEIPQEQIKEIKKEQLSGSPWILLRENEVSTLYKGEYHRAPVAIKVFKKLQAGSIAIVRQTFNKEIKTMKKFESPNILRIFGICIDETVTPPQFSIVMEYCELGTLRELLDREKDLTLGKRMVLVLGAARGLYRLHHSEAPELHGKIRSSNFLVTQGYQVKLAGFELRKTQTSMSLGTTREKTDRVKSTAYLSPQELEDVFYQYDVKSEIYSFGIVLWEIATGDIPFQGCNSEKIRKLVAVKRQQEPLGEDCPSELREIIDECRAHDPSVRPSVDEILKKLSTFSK
Method: Fig. S4 Competition assay of NSA with Ox-APO by SPR. Wt-hMLKL was immobilized on a CM5 chip and 750 μM Ox-APO was overflowed in the presence or absence of 200 μM NSA.

mouse MLKL = tested on: mouse MLKL; design: method as in PMID 28827318; conditions: cited from earlier work
[1] = 20 μM compound with TBZ, TBZ alone = 100, DPBS = 0
[2] = THP-1, TBZ and 20 μM compound, 8 h, whole cell lysates

SMILES	activity at 20 µM (THP-1-HMGB1-Lucia cells; [1])	activity at 20 µM (p-MLKL; [2])	other results
C=C1C(=O)O[C@H]2[C@H]1CC/C(C)=C/CC[C@@]1(C)O[C@@H]21 [S38, Parthenolide]	0%	40%	
Cc1ncc(-c2ccnc(Nc3ccc(S(C)(=O)=O)cc3)n2)n1C(C)C [S28, AZD 5438]	0%	55%	
COc1cc2nccc(Oc3ccc(NC(=O)Nc4cc(C)on4)c(Cl)c3)c2cc1OC [S46, Tivozanib]	9%	18%	
CC(C)(C)c1nc(-c2cccc(NS(=O)(=O)c3c(F)cccc3F)c2F)c(-c2ccnc(N)n2)s1 [S31, Dabrafenib]	4.5%	0%	
CC(=O)Oc1ccccc1C(=O)Nc1ncc([N+](=O)[O-])s1 [S15, Nitazoxanide]	1.2%	100%	effect on p-MLKL levels in both cytosolic and membrane fractions (p-MLKL and p-RIP1): almost no effect
O=C(Nc1ccc(Br)cc1)c1cccc(S(=O)(=O)Nc2ccc(Br)cc2)c1 [S19, N-(4-Bromophenyl)-3-[[(4-bromophenyl)amino]sulfonyl]benzamide]	5.3%	55%	
CC1(C)CC[C@]2(C(=O)O)CC[C@]3(C)[C@H](C(=O)C=C4[C@@]5(C)C=C(C#N)C(=O)C(C)(C)[C@@H]5CC[C@]43C)[C@@H]2C1 [S16, Bardoxolone]	0%	0%	
CN1C(=O)[C@@H](NC(=O)c2nnc(Cc3ccccc3)[nH]2)COc2ccccc21 [GSK2982772]			therapeutic benefit (ulcerative colitis): failed to show significant therapeutic benefit; tolerability in humans (ulcerative colitis): well tolerated
Cc1ccc(Nc2nccc(N(C)c3ccc4c(C)n(C)nc4c3)n2)cc1S(N)(=O)=O [S10, Pazopanib]	9.4%	86%	
O=C1c2c(O)ccc(O)c2C(=O)c2c(NCCNCCO)ccc(NCCNCCO)c21 [S58, Mitoxantrone hydrochloride]	7.6%	39%	
C=C1C(=O)O[C@@H]2/C=C(\C)CC/C=C(\C)CC[C@@H]12 [S35, Costunolide]	9%	30%	
Cc1ccc(C(=O)Nc2ccc(CN3CCN(C)CC3)c(C(F)(F)F)c2)cc1C#Cc1cnc2cccnn12 [S17, Ponatinib]			activity at 20 µM (THP-1-HMGB1-Lucia cells): 4.5%; activity at 20 µM (p-MLKL; THP-1, 8 h): 2%
O=C(Nc1ccc([N+](=O)[O-])cc1Cl)c1cc(Cl)ccc1O [S72, Niclosamide]	0.9%	35%	
C[C@@H]1O[C@@H](O[C@@H]2C=C3CC[C@@H]4[C@H](CC[C@]5(C)[C@@H](c6ccc(=O)oc6)CC[C@]45O)[C@@]3(C)CC2)[C@H](O)[C@H](O)[C@H]1O [S48, Proscillaridin]			activity at 20 µM (THP-1-HMGB1-Lucia cells): 6.8%
CN1CCN(c2ccc(Nc3c4ccccc4nc4ccccc34)cc2)CC1 [S1, JP-1302]			RIP1 phosphorylation (p-MLKL and p-RIP1): seemed to inhibit; activity (THP-1-HMGB1-Lucia cells; [1]): 0.4%
COc1cc2ncnc(Nc3cccc(Cl)c3)c2cc1OC [S3, Tyrphostin]	7.5%	70%	effect on p-MLKL levels in both cytosolic and membrane fractions (p-MLKL and p-RIP1): almost no effect
COc1cccc2c1C(=O)c1c(O)c3c(c(O)c1C2=O)C[C@@](O)(C(=O)CO)C[C@@H]3O[C@H]1C[C@H](N)[C@H](O)[C@H](C)O1 [S66, Doxorubicin]	8.6%		
COc1nccnc1NS(=O)(=O)c1ccc(NC(=O)/C=C/c2ccc([N+](=O)[O-])s2)cc1 [NSA, Necrosulfonamide]			competition for binding to hMLKL (Wt-hMLKL): competed with Ox-APO; activity against mouse MLKL (mouse MLKL): ineffective
CCCCC1C(=O)N(c2ccccc2)N(c2ccc(O)cc2)C1=O (centres unmarked) [S4, Oxyphenbutazone]	0%	38%	
